Experimental findings from patent USRE46511E1, “Fused pyrimidine derivatives for inhibition of tyrosine kinase activity” (HANMI SCIENCE CO., LTD., priority 2010, dated 2017) are described below.

The subject of assay [1] is NCI-H1975 (EGFR L858R/T790M). The assay is described as follows: Inhibition test for growth of cancer cell expressing EGFR (MTS), NCI-H1975. It is filed as cell-based. As to conditions: Homo sapiens; NCI-H1975 cells, 48 hours, MTS; read-out: GI50 NCI-H1975 EGFR L858R/T790M.
Description: A431 cell line was incubated in a high-glucose DMEM (Dulbecco's Modified Eagle's Medium) supplemented with 10% fetal bovine serum (FBS) and 1% penicillin/streptomycin (Gibco BRL), and HCC827 and NCI-H1975 cell lines were incubated in an RPMI medium supplemented with 10% FBS, 1% penicillin/streptomycin and 1% sodium pyruvate.
The cancer cell lines stored in a liquid nitrogen tank were each quickly thawed at 37° C., and centrifuged to remove the medium. The resulting cell pellet was mixed with a culture medium, incubated in a culture flask at 37° C. under 5% CO2 for 2 to 3 days, and the medium was removed. The remaining cells were washed with DPBS (Dulbecco's Phosphate Buffered Saline) and separated from the flask by using Tripsin-EDTA. […] 100 μl of the diluted cell solution was added to each well of a 96-well plate, and incubated at 37° C. under 5% CO2 for 1 day.
In case that the test compound was not soluble in DMSO, 1% HCl was added thereto and treated in a 40° C. water bath for 30 mins until a complete dissolution was attained. The DMSO solution containing test compound was diluted with a culture medium to a final concentration of 100 μM, and then diluted 10 times serially to 10^−6 μM (a final concentration of DMSO was less than 1%).
The medium was removed from each well of the 96-well plate. And then, 100 μl of a test compound solution was added to each well holding the cultured cells, and the plate was incubated at 37° C. under 5% CO2 for 72 hours (except that NCI-H1975 cells were incubated for 48 hours). After removing the medium from the plate, 50 μA of 10% trichloroacetic acid was added to each well, and the plate was kept at 4° C. for 1 hour to fix the cells to the bottom of the plate. The added 10% trichloroacetic acid solution was removed from each well, the plate was dried, 100 μA of an SRB (Sulforhodamine-B) dye solution at a concentration of 0.4% dissolved in 1% acetic acid was added thereto, and the resulting mixture was reacted for 10 mins at room temperature. After removing the dye solution, the plate was washed with water, and well dried. When the dye solution was not effectively removed by water, 1% acetic acid was used. 150 μA of 10 mM trisma base was added to each well, and the absorbance at 540 nm wavelength was determined with a microplate reader.
Assay [2] relates to HCC827 (EGFR DelE746_A750). The experiment in a line: Inhibition test for growth of cancer cell expressing EGFR (SRB), HCC827.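 Note: cells in 96-well plates exposed to tenfold serial dilutions from 100 µM, fixed with trichloroacetic acid, SRB-stained, absorbance read at 540 nm, DMSO under 1%.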 The class given is cell-based. As to conditions: Homo sapiens, HCC827, 72 h, HCC827 cells, 72 hours, SRB; read-out: GI50 HCC827 EGFR DelE746_A750.

Each structure is given as a SMILES string.

As to `C=CC(=O)Nc1cccc(Oc2nc(Nc3ccc(N4CCN(C)CC4)c(F)c3OC)nc3ccsc23)c1` [Example 6], the values for the GI50 in assay [1] and in assay [2] were less than 50 nM and 50 to 100 nM, respectively.

As to `C=CC(=O)Nc1cccc(Oc2nc(Nc3ccc(N4CCN(C(C)(C)C)CC4)cc3)nc3ccsc23)c1` [Example 12], the GI50 in assay [1] and in assay [2] was less than 50 nM throughout.

`C=CC(=O)Nc1cccc(Oc2nc(Nc3ccc(N4CCN(CCF)CC4)cc3)nc3ccsc23)c1` [Example 14]: the GI50 in assay [1] is 50 to 100 nM; in assay [2], less than 50 nM.

For `C=CC(=O)Nc1cccc(Oc2nc(Nc3ccc(N4CCN(CC(F)F)CC4)cc3)nc3ccsc23)c1` [Example 15], the GI50 in assay [1] and in assay [2] was less than 50 nM in each case.

In the case of `C=CC(=O)Nc1cccc(Oc2nc(Nc3ccc(N4CCN(CC(F)(F)F)CC4)cc3)nc3ccsc23)c1` [Example 16], the GI50 in assay [1] is less than 50 nM; in assay [2], 50 to 100 nM.

With `C=CC(=O)Nc1cccc(Oc2nc(Nc3ccc(N4CCN(CCOC)CC4)cc3)nc3ccsc23)c1` [Example 17], the GI50 in assay [1] and in assay [2] was less than 50 nM in each case.

For `C=CC(=O)Nc1cccc(Oc2nc(Nc3ccc(N4CCN(CCO)CC4)cc3)nc3ccsc23)c1` [Example 18], the GI50 in assay [1] and in assay [2] was less than 50 nM in each case.

For the molecule `C=CC(=O)Nc1cccc(Oc2nc(Nc3ccc(N4CCN(C(=O)N5CCOCC5)CC4)cc3)nc3ccsc23)c1` [Example 22], the values for the GI50 in assay [1] and in assay [2] were 50 to 100 nM and less than 50 nM, respectively.

Take `C=CC(=O)Nc1cccc(Oc2nc(Nc3ccc(N4CCN(S(=O)(=O)N(C)C)CC4)cc3)nc3ccsc23)c1` [Example 25]: the GI50 in assay [1] and in assay [2] was 50 to 100 nM throughout.

With `C=CC(=O)Nc1cccc(Oc2nc(Nc3ccc(N4CC(C)N(C)C(C)C4)cc3)nc3ccsc23)c1` (stereo not drawn) [Example 27], the GI50 in assay [1] and in assay [2] was less than 50 nM in each case.

As for `C=CC(=O)Nc1cccc(Oc2nc(Nc3ccc(N4CCC(n5ccnc5)C4)cc3)nc3ccsc23)c1` (stereo not drawn) [Example 35], the GI50 in assay [1] and in assay [2] was less than 50 nM each time.

For the molecule `C=CC(=O)Nc1cccc(Oc2nc(Nc3ccc(N4CCC(N(C)C)CC4)cc3)nc3ccsc23)c1` [Example 38], the GI50 in assay [1] and in assay [2] was less than 50 nM in each case.

As to `C=CC(=O)Nc1cccc(Oc2nc(Nc3ccc(N4CCC(C(=O)N(C)C)CC4)cc3)nc3ccsc23)c1` [Example 45], the GI50 in assay [1] and in assay [2] was less than 50 nM each time.

As for `C=CC(=O)Nc1cccc(Oc2nc(Nc3ccc(N4CCC(n5ccnc5)CC4)cc3)nc3ccsc23)c1` [Example 46], the GI50 in assay [1] and in assay [2] was less than 50 nM each time.

With `C=CC(=O)Nc1cccc(Oc2nc(Nc3ccc(N4CCC(N5CCOCC5)CC4)cc3)nc3ccsc23)c1` [Example 49], the GI50 in assay [1] and in assay [2] was less than 50 nM each time.

Regarding `C=CC(=O)Nc1cccc(Oc2nc(Nc3ccc(-n4ccnc4)cc3)nc3ccsc23)c1` [Example 56], the values for the GI50 in assay [1] and in assay [2] were less than 50 nM and 50 to 100 nM, respectively.

Take `C=CC(=O)Nc1cccc(Oc2nc(Nc3ccc(O)cc3)nc3ccsc23)c1` [Example 60]: the GI50 in assay [1] and in assay [2] was 100 to 1000 nM in each case.

In the case of `C=CC(=O)Nc1cccc(Oc2nc(Nc3ccc(OCCOC)cc3)nc3ccsc23)c1` [Example 61], the GI50 in assay [1] was less than 50 nM; in assay [2], 50 to 100 nM.

Regarding `C=CC(=O)Nc1cccc(Oc2nc(Nc3ccc(S(C)(=O)=O)cc3)nc3ccsc23)c1` [Example 69], the GI50 was less than 50 nM in assay [1] and 50 to 100 nM in assay [2].

Take `C=CC(=O)Nc1cccc(Oc2nc(Nc3ccc(S(=O)(=O)NC4CC4)cc3)nc3ccsc23)c1` [Example 71]: the GI50 was less than 50 nM in assay [1] and 50 to 100 nM in assay [2].

For the molecule `C=CC(=O)Nc1cccc(Oc2nc(Nc3ccc(C(C)=O)cc3)nc3ccsc23)c1` [Example 77], the GI50 in assay [1] and in assay [2] was less than 50 nM in each case.

Take `C=CC(=O)Nc1cccc(Oc2nc(Nc3ccc(C(=O)NC)cc3)nc3ccsc23)c1` [Example 78]: the GI50 in assay [1] and in assay [2] was 50 to 100 nM throughout.

For the molecule `C=CC(=O)Nc1cccc(Oc2nc(Nc3ccc(C(=O)N(C)C)cc3)nc3ccsc23)c1` [Example 84], the GI50 in assay [1] and in assay [2] was 50 to 100 nM throughout.

Take `C=CC(=O)Nc1cccc(Oc2nc(Nc3ccc(NC(=O)CCN4CCCC4)cc3)nc3ccsc23)c1` [Example 92]: the GI50 in assay [1] and in assay [2] was less than 50 nM each time.

In the case of `C=CC(=O)Nc1cccc(Oc2nc(Nc3ccc(C(=O)OCCCN(C)C)cc3)nc3ccsc23)c1` [Example 93], the GI50 in assay [1] and in assay [2] was 50 to 100 nM each time.

As for `C=CC(=O)Nc1cccc(Oc2nc(Nc3ccc(CCS(C)(=O)=O)cc3)nc3ccsc23)c1` [Example 97], the results for the GI50 in assay [1] and in assay [2] were less than 50 nM and 50 to 100 nM, respectively.

On to `C=CC(=O)Nc1cccc(Oc2nc(Nc3ccc(CCN4CCCCC4)cc3)nc3ccsc23)c1` [Example 98], for which the GI50 in assay [1] and in assay [2] was less than 50 nM in each case.

As for `C=CC(=O)Nc1cccc(Oc2nc(Nc3ccc(/C=C/CN4CCCCC4)cc3)nc3ccsc23)c1` [Example 102], the figures for the GI50 in assay [1] and in assay [2] were 50 to 100 nM and less than 50 nM, respectively.

Turning to `C=CC(=O)Nc1cccc(Oc2nc(Nc3ccc4c(c3)OCCO4)nc3ccsc23)c1` [Example 106], the GI50 is less than 50 nM in assay [1] and 50 to 100 nM in assay [2].

Consider `C=CC(=O)Nc1cccc(Oc2nc(Nc3ccc4c(c3)CCCC(=O)N4C)nc3ccsc23)c1` [Example 108], for which the GI50 in assay [1] and in assay [2] was 50 to 100 nM each time.

`C=CC(=O)Nc1cccc(Oc2nc(Nc3ccc4c(ccn4C)c3)nc3ccsc23)c1` [Example 111]: the GI50 in assay [1] was less than 50 nM; in assay [2], 50 to 100 nM.

Consider `C=CC(=O)Nc1cccc(Oc2nc(Nc3ccc(C4CCN(C)CC4)cc3OC)nc3ccsc23)c1` [Example 114], for which the GI50 in assay [1] is less than 50 nM; in assay [2], 50 to 100 nM.

As to `C=CC(=O)Nc1cccc(Oc2nc(Nc3ccc(OCCN4CCOCC4)c(OC)c3)nc3ccsc23)c1` [Example 116], the GI50 in assay [1] and in assay [2] was less than 50 nM throughout.

On to `C=CC(=O)Nc1cccc(Oc2nc(Nc3ccc(C(=O)NCCN4CCCC4)cc3OC)nc3ccsc23)c1` [Example 117], for which the GI50 in assay [1] was 50 to 100 nM; in assay [2], less than 50 nM.

As to `C=CC(=O)Nc1cccc(Oc2nc(Nc3ccc(C(=O)NC4CCN(C)CC4)c(OC)c3)nc3ccsc23)c1` [Example 118], the GI50 was 50 to 100 nM in assay [1] and less than 50 nM in assay [2].

As to `C=CC(=O)Nc1cccc(Oc2nc(Nc3ccc(N4CCN(C(=O)CN(C)C)CC4)c(F)c3)nc3ccsc23)c1` [Example 119], the GI50 in assay [1] and in assay [2] was less than 50 nM each time.

In the case of `C=CC(=O)Nc1cccc(Oc2nc(Nc3ccc(N4CCN(S(=O)(=O)CC)CC4)c(F)c3)nc3ccsc23)c1` [Example 121], the GI50 in assay [1] is less than 50 nM; in assay [2], 50 to 100 nM.

With `C=CC(=O)Nc1cccc(Oc2nc(Nc3ccc(N4CC(C)OC(C)C4)c(F)c3)nc3ccsc23)c1` (stereo not drawn) [Example 123], the GI50 in assay [1] and in assay [2] was 50 to 100 nM throughout.

Take `C=CC(=O)Nc1cccc(Oc2nc(Nc3ccc(N4CCC(N5CCCC5)CC4)c(F)c3)nc3ccsc23)c1` [Example 124]: the GI50 in assay [1] and in assay [2] was less than 50 nM throughout.
